Source: the NIST ThermoML archive (doi:10.1016/j.jct.2016.10.033)

Assay: refractive index (Na D-line) (dimensionless); xn = mol fraction of the nth substance listed
Details: 103 kPa, Liquid, Standard Abbe refractometry

CO[Si](C)(C)OC [dimethoxydimethylsilane] + CO[Si](C)(OC)c1ccccc1
refractive index
Details	298.15 K	303.15 K	308.15 K	313.15 K	318.15 K
x2 = 0	1.36816	1.36559	1.36297	1.36035	1.35771
x2 = 0.0501	1.37551	1.37295	1.37035	1.36774	1.36513
x2 = 0.1001	1.3826	1.38005	1.37748	1.37492	1.37233
x2 = 0.15	1.38945	1.38696	1.38442	1.3819	1.37936
x2 = 0.2	1.3961	1.39364	1.39111	1.38864	1.38612
x2 = 0.25	1.40247	1.40001	1.39748	1.39498	1.39248
x2 = 0.2999	1.40864	1.40619	1.40369	1.40119	1.3987
x2 = 0.3499	1.41459	1.41213	1.40966	1.40726	1.4048
x2 = 0.4001	1.42041	1.41798	1.41551	1.41306	1.41059
x2 = 0.4501	1.42603	1.42366	1.42126	1.41886	1.41642
x2 = 0.5001	1.43147	1.42909	1.42667	1.42426	1.42184
x2 = 0.55	1.43672	1.43435	1.43195	1.42958	1.42718
x2 = 0.6	1.44182	1.43946	1.43707	1.43469	1.43232
x2 = 0.6499	1.44673	1.44437	1.44197	1.43957	1.43718
x2 = 0.6999	1.45155	1.4492	1.44681	1.44442	1.44204
x2 = 0.75	1.45621	1.45386	1.45148	1.44913	1.44677
x2 = 0.7997	1.46072	1.45837	1.456	1.45364	1.45125
x2 = 0.8499	1.46514	1.46278	1.46042	1.45805	1.45569
x2 = 0.8999	1.46939	1.46704	1.46469	1.46234	1.45999
x2 = 0.95	1.47356	1.47121	1.46886	1.46651	1.46417

CCO[Si](C)(C)OCC [dimethyldiethoxysilane] + CO[Si](C)(OC)c1ccccc1
refractive index
Details	298.15 K	303.15 K	308.15 K	313.15 K	318.15 K
x2 = 0	1.38045	1.37791	1.37532	1.37275	1.37015
x2 = 0.05	1.38569	1.38315	1.38057	1.37799	1.37541
x2 = 0.1001	1.39089	1.38836	1.38582	1.38325	1.38071
x2 = 0.1499	1.39601	1.39351	1.39097	1.38844	1.38592
x2 = 0.2002	1.40114	1.39865	1.39614	1.39362	1.39108
x2 = 0.2501	1.40622	1.40372	1.40124	1.39874	1.39625
x2 = 0.3001	1.41123	1.40874	1.40626	1.40376	1.40129
x2 = 0.3499	1.41623	1.41376	1.41131	1.40883	1.4064
x2 = 0.4	1.42117	1.41873	1.41626	1.41378	1.41133
x2 = 0.4499	1.42609	1.42366	1.42126	1.41881	1.41639
x2 = 0.5	1.43096	1.42854	1.42613	1.42369	1.42133
x2 = 0.55	1.43582	1.4334	1.43098	1.42856	1.42618
x2 = 0.5999	1.44058	1.43819	1.43579	1.43336	1.43098
x2 = 0.65	1.44535	1.44296	1.44058	1.43819	1.43582
x2 = 0.6999	1.45008	1.4477	1.44531	1.4429	1.44055
x2 = 0.75	1.45489	1.45239	1.45002	1.44764	1.44527
x2 = 0.8	1.4594	1.45703	1.45464	1.45227	1.44991
x2 = 0.8498	1.464	1.46165	1.45929	1.45692	1.45455
x2 = 0.9	1.46859	1.46623	1.46388	1.46153	1.45918
x2 = 0.95	1.47312	1.47078	1.46843	1.46607	1.46372

C=C[Si](C)(OCC)OCC [methylvinyldiethoxysilane] + CO[Si](C)(OC)c1ccccc1
refractive index
Details	298.15 K	303.15 K	308.15 K	313.15 K	318.15 K
x2 = 0	1.39751	1.39501	1.39249	1.38997	1.38742
x2 = 0.05	1.40161	1.39911	1.3966	1.39407	1.39153
x2 = 0.1001	1.40569	1.40322	1.40071	1.39819	1.39567
x2 = 0.1499	1.40975	1.40729	1.40481	1.4023	1.39979
x2 = 0.2001	1.41382	1.41135	1.40888	1.40639	1.40391
x2 = 0.2501	1.41792	1.41547	1.413	1.41052	1.40804
x2 = 0.3	1.42192	1.41948	1.41702	1.41456	1.41207
x2 = 0.3499	1.42595	1.42352	1.42108	1.41864	1.41615
x2 = 0.4	1.42999	1.42755	1.42511	1.42265	1.4202
x2 = 0.4501	1.43404	1.43161	1.42919	1.42673	1.4243
x2 = 0.5	1.43801	1.43558	1.43316	1.43072	1.42827
x2 = 0.5499	1.44203	1.43961	1.43721	1.43477	1.43237
x2 = 0.6	1.44606	1.44365	1.44126	1.43884	1.43645
x2 = 0.65	1.44994	1.44754	1.44513	1.44272	1.4403
x2 = 0.6999	1.45398	1.45159	1.44922	1.44683	1.44442
x2 = 0.75	1.45797	1.45558	1.45323	1.45086	1.44847
x2 = 0.7999	1.46196	1.45958	1.45722	1.45484	1.45248
x2 = 0.85	1.46589	1.46352	1.46116	1.45878	1.45641
x2 = 0.8998	1.46999	1.46763	1.46528	1.4629	1.46054
x2 = 0.9499	1.47377	1.47142	1.46907	1.46672	1.46435

C=C[Si](OC)(OC)OC [trimethoxy(vinyl)silane] + CO[Si](C)(OC)c1ccccc1
refractive index
Details	298.15 K	303.15 K	308.15 K	313.15 K	318.15 K
x2 = 0	1.39022	1.38775	1.38535	1.3829	1.38046
x2 = 0.05	1.3954	1.39299	1.39056	1.38815	1.38572
x2 = 0.1	1.40052	1.39811	1.39569	1.39329	1.39082
x2 = 0.1499	1.40552	1.40314	1.40073	1.3983	1.39588
x2 = 0.2	1.41045	1.40807	1.40568	1.40327	1.40083
x2 = 0.2501	1.41527	1.41288	1.41047	1.40809	1.40568
x2 = 0.2999	1.41998	1.41762	1.41524	1.41284	1.41043
x2 = 0.35	1.42465	1.42228	1.41987	1.4175	1.4151
x2 = 0.4001	1.42919	1.42683	1.42444	1.42208	1.41967
x2 = 0.4501	1.43364	1.43129	1.42891	1.42653	1.42413
x2 = 0.5	1.43793	1.43559	1.43321	1.43084	1.42843
x2 = 0.5499	1.44232	1.43996	1.43759	1.4352	1.43283
x2 = 0.6	1.44653	1.44418	1.44182	1.43943	1.43706
x2 = 0.6499	1.45067	1.44831	1.44594	1.44356	1.4412
x2 = 0.7	1.45459	1.45224	1.4499	1.44754	1.44517
x2 = 0.75	1.45871	1.45636	1.454	1.45165	1.44929
x2 = 0.8001	1.46249	1.46015	1.45778	1.45542	1.45307
x2 = 0.8498	1.46647	1.46413	1.46178	1.45942	1.45707
x2 = 0.8999	1.47026	1.46791	1.46557	1.46321	1.46087
x2 = 0.9499	1.47397	1.47163	1.46928	1.46693	1.46458
